*1 amine or outer side, *2 acyl side, *3 side chain or, on linkers, in order; H or OH if unused. Where a SMILES comes first, the peptide text is derived from it. Side-chain parts run from the residue outwards. [ ]: non-standard residue; d: D form. βAsp = O=C(O)[C@H](CC(=O)[*:2])N[*:1]; NMeF = CN[C@@H](Cc1ccccc1)C(=O)O; CO = O=C([*:1])[*:2]
Legend:
Assay in all cases: Enzyme Inhibition Assay
Endochitinase B1 [R301K] = Endochitinase B1 [R301K] (Aspergillus fumigatus, UniProt Q873X9, R301K)
Endochitinase B1 [D175A] = Endochitinase B1 [D175A] (Aspergillus fumigatus, UniProt Q873X9, D175A)
Endochitinase B1 [E322A] = Endochitinase B1 [E322A] (Aspergillus fumigatus, UniProt Q873X9, E322A)
Endochitinase B1 [T138A] = Endochitinase B1 [T138A] (Aspergillus fumigatus, UniProt Q873X9, T138A)
Endochitinase B1 = Endochitinase B1 (Aspergillus fumigatus, UniProt Q873X9); conditions: for IC50: pH 5.5, 37 °C
Endochitinase B1 [A217G] = Endochitinase B1 [A217G] (Aspergillus fumigatus, UniProt Q873X9, A217G)
Endochitinase B1 [M243A] = Endochitinase B1 [M243A] (Aspergillus fumigatus, UniProt Q873X9, M243A)
Chitinase B = molecular target: T1, Chitinase B (Serratia marcescens, UniProt P11797); conditions: pH 5.5; 37 °C
T1 sequence (P11797 whole entry): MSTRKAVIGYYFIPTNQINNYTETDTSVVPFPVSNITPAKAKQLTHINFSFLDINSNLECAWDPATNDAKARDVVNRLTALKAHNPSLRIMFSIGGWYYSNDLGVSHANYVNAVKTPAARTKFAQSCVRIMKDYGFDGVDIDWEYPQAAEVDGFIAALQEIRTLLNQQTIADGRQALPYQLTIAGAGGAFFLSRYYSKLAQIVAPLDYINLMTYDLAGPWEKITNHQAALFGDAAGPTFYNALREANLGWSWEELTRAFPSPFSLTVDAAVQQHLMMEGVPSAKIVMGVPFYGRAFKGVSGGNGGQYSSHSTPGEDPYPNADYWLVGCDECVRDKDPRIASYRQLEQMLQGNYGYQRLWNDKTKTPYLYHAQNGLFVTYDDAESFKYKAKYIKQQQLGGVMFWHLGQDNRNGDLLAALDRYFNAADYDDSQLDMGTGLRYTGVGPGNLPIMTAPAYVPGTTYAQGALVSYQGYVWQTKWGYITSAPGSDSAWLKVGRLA

Endochitinase B1 [Y245F] = Endochitinase B1 [Y245F] (Aspergillus fumigatus, UniProt Q873X9, Y245F)

Row | SMILES | Kd (Endochitinase B1 [R301K]) | Kd (Endochitinase B1 [D175A]) | Kd (Endochitinase B1 [E322A]) | Kd (Endochitinase B1 [T138A]) | Kd (Endochitinase B1) | IC50 (Endochitinase B1) | Kd (Endochitinase B1 [A217G]) | Kd (Endochitinase B1 [M243A]) | Ki (Chitinase B) | Kd (Endochitinase B1 [Y245F])
1 | CC(=O)NC(=N)NCCC[C@@H]1NC(=O)[C@H](CCCC(=O)O)NC(=O)[C@H](Cc2c[nH]cn2)N2C(=O)[C@H](C[C@H]2O)NC(=O)[C@H]2CCCN2C1=O [4-[(1S,4R,10S,13S,16S,18R)-10-{3-[(acetamidomethanimidoyl)amino]propyl}-18-hydroxy-16-(1H-imidazol-4-ylmethyl)-3,9,12,15,20-pentaoxo-2,8,11,14,17-pentaazatricyclo[15.2.1.0^{4,8}]icosan-13-yl]butanoic acid] | 1020 nM | 3600 nM | 2930 nM | 3040 nM | 810 nM | 500 nM | 2840 nM | 9390 nM | 20 nM | 5570 nM
2 | CNC(=O)NC(=N)NCCC[C@@H]1NC(=O)[C@@H](C)NC(=O)C[C@@H](C(=O)O)NC(=O)C[C@@H](C(=O)O)NC(=O)[C@H](Cc2ccccc2)N(C)C1=O [(2R,5S,8S,11S,15S)-8-benzyl-2,7-dimethyl-5-[3-({[(methylcarbamoyl)amino]methanimidoyl}amino)propyl]-3,6,9,13,17-pentaoxo-1,4,7,10,14-pentaazacycloheptadecane-11,15-dicarboxylic acid] (cyclo([NMeF][βAsp][βAsp][dA]R([CO-NHMe]))) | 2160 nM | 3810 nM | 1370 nM | 1210 nM | 460 nM | 1100 nM | 4240 nM | 1730 nM | 33000 nM | –
